ChEMBL document CHEMBL1201862, “PubChem BioAssay data set” (2004)
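Each compound was tested at five concentrations against cells in 96-well plates for 48 hours. GI50 = concentration required for 50% inhibition of growth.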 The source made the active and inactive calls. Rule as the data show it: active = GI50 up to about 1.1 µM and inactive = higher.

Assays:
Experiment in all cases: NCI anticancer screen, dose series, 48 h
[1] = test system: DMS-114
[2] = test system: KM12
[3] = test system: IGROV-1
[4] = test system: SN12C
[5] = test system: T47D
[6] = test system: SNB-19
[7] = test system: KM-20L2
[8] = test system: SF-268
[9] = test system: LOX IMVI
[10] = test system: EKVX
[11] = test system: DLD-1
[12] = test system: M14
[13] = test system: SK-OV-3
[14] = test system: HL-60
[15] = test system: SNB-78
[16] = test system: MDA-MB-231
[17] = test system: SK-MEL-28
[18] = test system: OVCAR-8
[19] = test system: K562
[20] = test system: HOP-18

For Cc1ccc2[nH]c3c(C)c4cc[n+](C)cc4c(C)c3c2c1, the GI50 [1] was 0.61 µM (active), the GI50 [2] was 0.67 µM (active) and the GI50 [3] was 1.19 µM (inactive). The GI50 [4] was 0.271 µM (active), the GI50 [5] was 1.55 µM (inactive) and the GI50 [6] was 0.499 µM (active). For the same compound, the GI50 [7] was 3.96 µM (inactive), the GI50 [8] was 0.441 µM (active) and the GI50 [9] was 5 µM (inactive). For the same compound, the GI50 [10] was 1.27 µM (inactive), the GI50 [11] was 1.67 µM (inactive) and the GI50 [12] was 6.43 µM (inactive). For the same compound, the GI50 [13] was 2.51 µM (inactive), the GI50 [14] was 5.12 µM (inactive) and the GI50 [15] was 0.787 µM (active). The GI50 [16] was 0.931 µM (active), the GI50 [17] was 2.12 µM (inactive) and the GI50 [18] was 0.612 µM (active). The GI50 [19] was 1.41 µM (inactive) and the GI50 [20] was 9.66 µM (inactive).

N#CC1(C#N)C(C#N)(C#N)C12CCCCCC2 was tested, and the GI50 [1] was 21.1 µM (inactive), the GI50 [2] was 14 µM (inactive) and the GI50 [3] was 40.2 µM (inactive). The GI50 [4] was 18.1 µM (inactive), the GI50 [6] was 29.4 µM (inactive) and the GI50 [7] was 16.6 µM (inactive). For the same compound, the GI50 [8] was 22.5 µM (inactive), the GI50 [9] was 16.7 µM (inactive) and the GI50 [10] was 17.3 µM (inactive). For the same compound, the GI50 [11] was 4.1 µM (inactive), the GI50 [12] was 2.81 µM (inactive) and the GI50 [13] was > 64.4 µM (inactive). The GI50 [14] was 3.48 µM (inactive), the GI50 [15] was 13.3 µM (inactive) and the GI50 [17] was 8.57 µM (inactive). The GI50 [18] was 13.2 µM (inactive), the GI50 [19] was 3.1 µM (inactive) and the GI50 [20] was 16.4 µM (inactive).

In the case of CC1=CCC2(C#N)CCC1C2O (stereo unspecified), the GI50 [1] is reported as > 100 µM (inactive), the GI50 [2] is reported as > 100 µM (inactive) and the GI50 [3] is reported as > 100 µM (inactive). For the same compound, the GI50 [4] was > 100 µM (inactive), the GI50 [6] was > 100 µM (inactive) and the GI50 [7] was 39.4 µM (inactive). For the same compound, the GI50 [8] was > 100 µM (inactive), the GI50 [9] was > 100 µM (inactive) and the GI50 [10] was > 100 µM (inactive). The GI50 [11] was > 100 µM (inactive), the GI50 [12] was > 100 µM (inactive) and the GI50 [13] was > 100 µM (inactive). The GI50 [14] was > 100 µM (inactive), the GI50 [15] was > 100 µM (inactive) and the GI50 [17] was > 100 µM (inactive). The GI50 [18] was > 100 µM (inactive), the GI50 [19] was > 100 µM (inactive) and the GI50 [20] was > 100 µM (inactive).
